Reference: PMC4879785, “GintAMT3 – a Low-Affinity Ammonium Transporter of the Arbuscular Mycorrhizal Rhizophagus irregularis” (Frontiers in Plant Science, 2016)

Key:
GintAMT1 = target: T1, GintAMT1 (Rhizophagus intraradices, UniProt A2Q6J0); conditions: starting ammonium printed as 1 mM and 2 mM (Figure 5 legend)
T1 construct: gene AMT1

GintAMT2 = target: T2, GintAMT2 (Rhizophagus intraradices, UniProt F8K9Q4); conditions: starting ammonium printed as 1 mM and 2 mM (Figure 5 legend)
T2 construct: gene amt2
T2 sequence (F8K9Q4 1-470): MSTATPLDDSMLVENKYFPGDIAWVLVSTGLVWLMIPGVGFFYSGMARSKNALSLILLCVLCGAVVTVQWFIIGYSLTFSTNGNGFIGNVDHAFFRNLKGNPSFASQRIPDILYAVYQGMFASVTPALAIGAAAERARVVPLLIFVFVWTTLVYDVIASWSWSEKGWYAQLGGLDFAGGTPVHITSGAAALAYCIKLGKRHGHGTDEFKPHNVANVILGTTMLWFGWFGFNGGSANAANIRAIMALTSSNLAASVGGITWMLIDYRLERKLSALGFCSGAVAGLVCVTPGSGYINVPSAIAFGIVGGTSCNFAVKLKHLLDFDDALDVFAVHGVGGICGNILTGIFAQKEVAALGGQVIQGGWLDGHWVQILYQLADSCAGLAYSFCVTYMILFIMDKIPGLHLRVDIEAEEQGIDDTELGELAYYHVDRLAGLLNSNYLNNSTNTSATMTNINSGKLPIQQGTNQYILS

[1] = substrate: CN; assay: cells, lysate or membranes; assay type: cell-based, Rhizophagus irregularis; conditions: pH 5, 50 mM KH2PO4, 20 mM glucose, 30 °C, labelled compound, 0-15 mM substrate, Hanes-Woolf plot

T1 sequence (A2Q6J0 1-479): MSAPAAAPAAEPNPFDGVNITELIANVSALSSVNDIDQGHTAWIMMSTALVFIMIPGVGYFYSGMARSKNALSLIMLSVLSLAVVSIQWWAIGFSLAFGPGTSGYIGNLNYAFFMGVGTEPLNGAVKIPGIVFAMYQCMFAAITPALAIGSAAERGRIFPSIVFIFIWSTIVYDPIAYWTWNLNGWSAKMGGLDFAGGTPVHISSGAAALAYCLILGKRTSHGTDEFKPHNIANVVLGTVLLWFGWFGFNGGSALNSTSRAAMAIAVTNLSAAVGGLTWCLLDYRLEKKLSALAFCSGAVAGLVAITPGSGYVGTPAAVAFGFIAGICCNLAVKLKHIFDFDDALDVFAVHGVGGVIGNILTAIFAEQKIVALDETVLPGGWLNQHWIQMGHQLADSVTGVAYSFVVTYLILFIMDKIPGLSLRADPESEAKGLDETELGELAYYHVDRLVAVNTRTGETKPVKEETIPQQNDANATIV

Molecule: N [ammonium]
- ammonium removal from medium by yeast (GintAMT1): Yeast cells expressing ScMEP1 and GintAMT1 took up ammonium quite rapidly.
- ammonium removal from medium by yeast (GintAMT2): GintAMT2 and GintAMT3 expressing cells imported ammonium at a slower rate

B1: GintAMT3 (Rhizophagus irregularis) (protein)
chain: MSETSQPSQFKEGDIAWMLTSTAFVWLMIPGVGYFYSGMARSKNALSLILFCFLCVPVVAMQWFIWGYSLSFSRTGGLFIGNLRNAFFMNVRGEPTLKAESLPEIVHAIYQGMFAAITPSLAIGAAAERARMLPLLVFIFVWSTLVYDVIACWIWSANGWFKTIEGLDFAGGTPVHIASGAAALAYCVVLGKRHGHGRDEFKPHNNVNVILGTVFLWFGWFGFNGGSAFGANTRAAMAIMVTNTAASFGGLAWMLMDYRLERKFSALGFCSGAVAGLVCITPASGYVSPPVSVLFGITGGIACNLAVKLKHILDFDDALDVFAVHAVGGVAGNTLLGIFADKEMAALNGEIIHGGAIDGHSVQLGYQIASSIAGLTYSFCISALILYVMDRIPCLKLRMEPDEEEIGTDETELGEPAYYFLDRVVASIQVQIASKTMSSPQQTQLQSIDHIHYS
- Km [1]: 1800 µM
